Laboratory results taken from patent US5552407A (priority 1993, dated 1996).
Entries after “also recorded” stand apart in the source; their conditions may differ. Read-outs that look alike come from different tables or passages of the source.

Columns and labels:
[1] = test system: guinea pig tracheal rings; assay: Relaxation or tension of pre-contracted tracheal rings
[2] = test system: chicken biventer cervicis muscle; assay: Chicken biventer cervicis muscle in vitro, assay for antinicotinic activity; type: cell-based
Source text: As observed by the present inventors, MEG was ineffective in altering the amplitude of tension produced by supramaximal electrical stimulation, or ACh-produced contraction of the chicken biventer cervicis muscle in vitro, an assay for antinicotinic activity (B. L. Ginsborg et al., Br. J. Pharmacol. 15:410 (1960); H. A. N. El-Fawal et al., Neurotoxicology 9:625 (1988)).

[3] = test system: guinea pig tracheal rings; assay: Acetylcholine-induced contraction of isolated tracheal rings; conditions: for minimal effective concentration: Cavia porcellus, 5 min; for spasmogenic activity by itself: absence of ACh
[4] = test system: guinea pigs; assay: Inhalation exposure safety in guinea pigs; type: in vivo, guinea pig
Description: (§1) Squirrel monkeys or guinea pigs were restrained in a whole body plethysmograph, a sealed box with a separate face mask for each animal. A pneumotachograph and stain gauge assembly permitted the measurement of flow. The ratio of derivatives of flow to box pressure yield a measure of airway conductance (SGAW). MEG was administered at concentrations up to 15 mg/liter of air.
Guinea pigs are known to be highly sensitive to pulmonary manipulations.

[5] = test system: squirrel monkeys; assay: Whole body plethysmograph, airway conductance / bronchoconstriction in vivo; set-up: species or system squirrel monkey
Description: as §1
This was studied by exposing a population of squirrel monkeys, which were well-trained and adapted to the experimental setting, to aerosolized cholinergic agonists and then studying the effects of MEG or cocaine pretreatment on the response to cholinergic provocation.
Care was taken to exclude any other source of potential measurement artifact, including reducing dead volumes, examining for leaks, recalibration, and so forth. The particles were dehydrated to reduce their size and facilitate airway entry. The monkeys' nares were occluded to compel mouth breathing. Greater methacholine concentrations in the nebulizer were tested until dramatic decreases in heart rate occurred, consistent with significant systemic absorption of this relatively short duration cholinergic agonist.
This may reflect the antihistaminic activity of MEG observed in vitro.

[6] = test system: guinea pig tracheal rings; assay: Histamine-induced contraction of isolated tracheal rings
[7] = test system: guinea pig tracheal rings; assay: Carbachol-induced contraction of isolated tracheal rings; conditions: Cavia porcellus, 5 min, read-out: reduction of carbachol-induced contraction
[8] = test system: guinea pig tracheal rings; conditions: cited from earlier work
[9] = test system: guinea pig tracheal rings; conditions: atropine at 3, 10 and 30 nM; cited from earlier work
[10] = test system: muscarinic receptor; conditions: cited from earlier work

COC(=O)C1=CCC2CCC1N2C (centres unmarked) [MEG, anhydroecgonine methyl ester]
effect on rings with mechanically elevated tension [1]: failed to relax | concentrations for relaxation relative to those antagonizing ACh-induced contraction with preincubation ([1]; pre-contraction with 10^-3 ACh): two orders of magnitude higher | effect on rings pre-contracted with ACh ([1]; pre-contraction with 10^-3 ACh): dose-dependent relaxation | effect on amplitude of tension from supramaximal electrical stimulation or ACh-produced contraction [2]: ineffective | cholinergic agonist activity [3]: lack any cholinergic agonist activity | kind of antagonism of ACh-induced contraction ([3]; ACh up to 2×10^-3 M): reduced the magnitude of contraction produced by ACh without changing the tissue threshold of contraction; also recorded: could not be overcome; also recorded: non-competitively antagonized acetylcholine; also recorded: potent non-competitive cholinergic antagonist | minimal effective concentration ([3]; read-out: concentration at and above which insurmountable non-competitive antagonism was produced): ≥ 0.001 µM | minimal effective concentration ([3]; read-out: concentration at and above which peak tension produced by ACh was reduced): ≥ 0.001 µM | minimal effective concentration ([3]; read-out: lowest level showing anticholinergic properties): 0.1 µM | effect of MEG on cocaine's sensitization/potentiation of ACh ([3]; MEG 10^-7 M with cocaine 5×10^-6 M): antagonized cocaine's potentiation of acetylcholine's efficacy; also recorded: reduced the sensitization to ACh; also recorded: non-competitively antagonized ACh in the presence of cocaine sensitization | recovery of responsiveness to ACh after exposure ([3]; after washing of the preparation): full responsiveness to ACh could not be restored; also recorded: no recovery after washing of the preparation; also recorded: irreversible | mortality ([4]; 14 mg/liter of air by inhalation): Only one exposed guinea pig died | margin of safety ([4]; in vivo studies): wide margin of safety | bronchoconstriction in response to inhaled histamine ([5]; animals pretreated with MEG): bronchoconstriction, but only at unusually high levels | airway effect of MEG given alone by inhalation ([5]; squirrel monkeys or guinea pigs, up to 15 mg/liter of air): Bronchoconstriction was observed | bronchoconstriction in response to aerosolized ACh or methacholine ([5]; squirrel monkeys with extensive histories of exposure to MEG): unable to produce bronchoconstriction; also recorded: no bronchoconstriction observed | effect on histamine threshold ([6]; MEG 10^-7): shifting the histamine threshold upwards | effect on contraction-inducing action of histamine ([6]; MEG 10^-7 and 10^-9 M): antagonized the contraction-inducing action of histamine | inhibition at 0.1 µM [7]: 50%

CN1[C@@H]2CC[C@H]1C[C@@H](OC(=O)C(CO)c1ccccc1)C2 (some centres unmarked) [atropine]
carbachol concentration at which the effect was surmountable ([8]; 10^-7 M atropine): 10^-4 M | magnitude of reduction at any given carbachol concentration, compared with MEG ([8]; 10^-7 atropine): usually less than that produced by MEG | kind of antagonism of ACh-induced contraction [9]: competitively antagonized ACh-induced contraction

COC(=O)[C@H]1[C@@H](OC(=O)c2ccccc2)C[C@@H]2CC[C@H]1N2C [cocaine, reference compound]
effect on tissue pre-contracted with ACh ([1]; cocaine from 10^-4 M to 2×10^-3 M): further increase in dose-dependent tension | concentration with antimuscarinic properties as assayed by QNB binding [10]: 18 µM | spasmogenic activity by itself [3]: did not produce tension in the absence of ACh | spasmogenic activity by itself ([3]; listed as Cocaine): did not display any spasmogenic activity | effect on maximum tension produced by ACh ([3]; cocaine 5×10^-6 M): increased the maximum tension produced | lowering of the threshold at which ACh produced tension ([3]; cocaine 5×10^-6 M): two orders of magnitude | concentration that decreased ACh-induced tension ([3]; cocaine HCl): 10^-4 M | concentrations that increased ACh-induced tension ([3]; cocaine HCl, 5 min incubation): 10^-7 to 10^-5 M | effect on maximum response relative to ACh alone ([3]; cocaine at 10^-4 M): reduced the maximum response to a third | effect on threshold for contraction elicited by ACh ([3]; cocaine at 10^-4 M): increased the threshold | effect on threshold for contraction elicited by ACh ([3]; cocaine at 10^-6 M): lowered the threshold | effect on tension produced by ACh at the highest ACh concentration ([3]; cocaine at 10^-7 M, ACh 2×10^-3 M): increased the tension | recovery of responsiveness to ACh after exposure ([3]; cocaine at concentrations below 10^-4 M): restored with no desensitization
